Source: US5591758A, “Organic nitrates, processes for their preparation and their use in the treatment of cardiovascular diseases” (Laboratoires Hoechst, SA, priority 1991, dated 1997)
pIC50: −log10 of the molar value. Counter-ions that a name gives are not always drawn. Blank lines part the entries; values can stand above or below the molecule they belong to.

How the values were obtained:
[1] = tested on: thoracic aorta; assay: Vasorelaxant effect on isolated vessels (rat thoracic aorta rings without endothelium, precontracted with noradrenalin); parameters: species or system Wistar rats; details: for Emax: Rattus norvegicus, maximum inhibition of noradrenalin effect, 10^-8 to 10^-4 M substance, read-out: Maximum Relaxation; for pIC50: rat aorta, 10^-7 M noradrenalin contraction
Summary of the method: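 Endothelium-denuded thoracic aorta rings from Wistar rats, held in Krebs-Ringer buffer (pH 7.4, 37 °C, 95% O2/5% CO2) under isometric tension and precontracted with 10^-7 M noradrenalin, received cumulative compound (10^-8 to 10^-4 M). Maximum relaxation given as percent; IC50 calculated when relaxation exceeded 50%.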

[2] = tested on: anesthetised pigs; assay: Haemodynamic effects on anesthetised pigs; type: in vivo, pigs ("German land" race)
Method: Haemodynamic effects of the compounds according to the invention on anesthetised pigs or dogs
Pigs are of "German land" race (20-26 kg) and are used after fasting overnight.
In the case of pigs, sedation, analgesia and anesthesia are induced by ketamine HCl (20 mg/kg i.m.), methonidate HCl (10 mg/kg i.m.), xylacine HCl (3 mg/kg i.m.) and sodium pentobarbitol (25-30 mg/kg as bolus i.v. or 0.16 mg/kg/min as i.v. perfusion).
The pigs or dogs are placed under artificial respiration in ambient air. Analysis of the blood gases (pO2, pCO2) is carried out at regular intervals and oxygen can be supplied via the respirator, if necessary.
The haemodynamic parameters recorded include the left ventricular pressure (LVP; Millar PC350 Tip catheter inserted via the carotid artery), systemic blood pressure (BPs, BPd; full catheter in a femoral artery), the end pressure of the left ventricular diastole (LVEDP), the ventricular contractility (LVPdp/dtmax) and the heart rate (HR).
The haemodynamic variables are recorded continuously for 1 to 3 hours, as a function of the period of action of the compound.
The effects of the compounds studied are shown as the absolute difference with respect to the base value (bv) measured before administration of the compounds and are shown in Table VII (a,b,c).
An antianginal activity is estimated by a fall in the BPs and the LVEDP (fall in venous return).

[3] = tested on: isolated pulmonary vessel; assay: Relaxant activity on blood vessels isolated from guinea pigs (pulmonary artery); details: Cavia porcellus; guinea pig pulmonary artery, K+ depolarised, Ca2+ contraction; read-out: IC50 (relaxation of 50%)
Method: Determination of the relaxant activity of the compounds according to the invention on blood vessels isolated from guinea pigs.
The pulmonary artery of male guinea pigs (350-500 g) is isolated and cut into spiral tracts (1 mm wide, 15 mm long). […] After having removed the calcium from the tissues (Tyrode without calcium and 0.2 mM EDTA), the tracts are depolarised in the presence of a concentrated solution of K^+ ions (40 mM), which is produced by replacing the NaCl by equimolar amounts of KCl, and a contraction of long duration is then induced by Ca^2+ ions (0.5 mM).
The compounds studied are then introduced into the organ cell in increasing concentrations.
Each compound is tested on at least four vessel spiral tracts.

pIC50 [1]: 4.70 | pIC50 [3]: 5.22
SMILES: O=C(CNC(=O)OCc1ccccc1)N[C@H]1CO[C@H]2[C@@H]1OC[C@@H]2O[N+](=O)[O-] [Compound 4, N-[(Benzyloxy)carbonyl]glycine amide of 5-amino-5-deoxy-2-O-nitro-1,4:3,6-dianhydro-L-iditol]
Emax [1]: 75% | BPs (min), period of action ([2]; pigs, 3,0 mg/kg i.d.): > 120 min | BPs, difference to base value ([2]; pigs, 3,0 mg/kg i.d.): -28 mmHg | LVRDP (min), period of action ([2]; pigs, 3,0 mg/kg i.d.): > 120 min | LVRDP, difference to base value ([2]; pigs, 3,0 mg/kg i.d.): -2,0 mmHg

pIC50 [1]: < 4.00 | pIC50 [3]: 4.52
SMILES: NCC(=O)N[C@H]1CO[C@H]2[C@@H]1OC[C@@H]2O[N+](=O)[O-] [Compound 6, Glycine amide of 5-amino-5-deoxy-2-O-nitro-1,4:3,6-dianhydro-L-iditol monohydrochloride]
Emax [1]: 45% | BPs (min), period of action ([2]; pigs, 1,0 mg/kg i.d.): > 180 min | BPs, difference to base value ([2]; pigs, 1,0 mg/kg i.d.): -31 mmHg | LVRDP (min), period of action ([2]; pigs, 1,0 mg/kg i.d.): > 180 min | LVRDP, difference to base value ([2]; pigs, 1,0 mg/kg i.d.): -4,0 mmHg

pIC50 [1]: 5.00 | pIC50 [3]: 5.52
SMILES: O=C(O[C@H]1CO[C@H]2[C@@H]1OC[C@H]2O[N+](=O)[O-])c1ccccc1SCc1ccccc1 [Compound 22, 2-O-[2-[(Phenylmethyl)thio]benzoyl]-5-O-nitro-1,4:3,6-dianhydro-D-glucitol]
Emax [1]: 100% | BPs (min), period of action ([2]; pigs, 10 mg/kg i.v.): 5 min | BPs, difference to base value ([2]; pigs, 10 mg/kg i.v.): -73 mmHg | LVRDP (min), period of action ([2]; pigs, 10 mg/kg i.v.): 5 min | LVRDP, difference to base value ([2]; pigs, 10 mg/kg i.v.): -2,0 mmHg

pIC50 [1]: 4.30 | pIC50 [3]: 5.70
SMILES: O=C(O[C@@H]1CO[C@H]2[C@@H]1OC[C@@H]2O[N+](=O)[O-])c1ccccc1SCc1ccccc1 [Compound 28, 5-O-[2-[(Phenylmethyl)thio]benzoyl]-2-O-nitro-1,4:3,6-dianhydro-D-glucitol]
Emax [1]: 70% | BPs (min), period of action ([2]; pigs, 3,0 mg/kg i.d.): > 180 min | BPs, difference to base value ([2]; pigs, 3,0 mg/kg i.d.): -28 mmHg | LVRDP (min), period of action ([2]; pigs, 3,0 mg/kg i.d.): > 180 min | LVRDP, difference to base value ([2]; pigs, 3,0 mg/kg i.d.): -6,0 mmHg

The next lines start with the molecule.

SMILES: CC(C)(C)OC(=O)NCC(=O)N[C@H]1CO[C@H]2[C@@H]1OC[C@@H]2O[N+](=O)[O-] [Compound 5, N-[(t-Butoxy)carbonyl]glycine amide of 5-amino-5-deoxy-2-O-nitro-1,4:3,6-dianhydro-L-iditol]
Emax [1]: 70% | pIC50 [1]: 4.60 | BPs (min), period of action ([2]; pigs, 1,0 mg/kg i.d.): > 120 min | BPs, difference to base value ([2]; pigs, 1,0 mg/kg i.d.): -24 mmHg | LVRDP (min), period of action ([2]; pigs, 1,0 mg/kg i.d.): > 120 min | LVRDP, difference to base value ([2]; pigs, 1,0 mg/kg i.d.): -4,0 mmHg | pIC50 [3]: 4.85

SMILES: CC(=O)NCSC[C@H](NC(=O)OC(C)(C)C)C(=O)O[C@H]1CO[C@H]2[C@@H]1OC[C@H]2O[N+](=O)[O-] [Compound 20, S-[(Acetylamino)methyl]-N-[(t-butoxy)carbonyl]-L-cysteine ester of 5-O-nitro-1,4:3,6-dianhydro-D-glucitol]
Emax [1]: 85% | pIC50 [1]: 4.55 | BPs (min), period of action ([2]; pigs, 10 mg/kg i.v.): 5 min | BPs, difference to base value ([2]; pigs, 10 mg/kg i.v.): -20 mmHg | LVRDP (min), period of action ([2]; pigs, 10 mg/kg i.v.): 5 min | LVRDP, difference to base value ([2]; pigs, 10 mg/kg i.v.): -4,0 mmHg

SMILES: CC(=O)NCSc1ccccc1C(=O)O[C@H]1CO[C@H]2[C@@H]1OC[C@H]2O[N+](=O)[O-] [Compound 23]
BPs, difference to base value ([2]; pigs, 10,0 mg/kg i.d.): 0 mmHg | LVRDP, difference to base value ([2]; pigs, 10,0 mg/kg i.d.): 0 mmHg

SMILES: O=C(O[C@@H]1CO[C@H]2[C@@H]1OC[C@@H]2O[N+](=O)[O-])c1ccccc1SSc1ccccc1C(=O)O[C@@H]1CO[C@H]2[C@@H]1OC[C@@H]2O[N+](=O)[O-] [Compound 29, Bis[5-O-[(2-thio)benzoyl]-2-O-nitro-1,4:3,6-dianhydro-D-glucitol]]
BPs (min), period of action ([2]; pigs, 3 mg/kg i.v.): 10 min | BPs, difference to base value ([2]; pigs, 3 mg/kg i.v.): -42 mmHg | LVRDP (min), period of action ([2]; pigs, 3 mg/kg i.v.): 16 min | LVRDP, difference to base value ([2]; pigs, 3 mg/kg i.v.): -2,0 mmHg
